Results published in publication PMC12439166, “Dietary flavonoids form supramolecular assemblies, alter biochemistry, and enhance cell resilience” (Frontiers in Nutrition, 2025).

What was measured:
Sirtuin-3 (SIRT3) = molecular target: T1, Sirtuin-3 (SIRT3) (Homo sapiens, UniProt Q9NTG7); test: Enzyme activity assay (SAMDI-MS), SIRT3; format: biochemical; conditions: 10 concentrations, 5 nM to 100 μM, compounds incubated with enzyme 30 min, result in words
T1 sequence (Q9NTG7 1-399): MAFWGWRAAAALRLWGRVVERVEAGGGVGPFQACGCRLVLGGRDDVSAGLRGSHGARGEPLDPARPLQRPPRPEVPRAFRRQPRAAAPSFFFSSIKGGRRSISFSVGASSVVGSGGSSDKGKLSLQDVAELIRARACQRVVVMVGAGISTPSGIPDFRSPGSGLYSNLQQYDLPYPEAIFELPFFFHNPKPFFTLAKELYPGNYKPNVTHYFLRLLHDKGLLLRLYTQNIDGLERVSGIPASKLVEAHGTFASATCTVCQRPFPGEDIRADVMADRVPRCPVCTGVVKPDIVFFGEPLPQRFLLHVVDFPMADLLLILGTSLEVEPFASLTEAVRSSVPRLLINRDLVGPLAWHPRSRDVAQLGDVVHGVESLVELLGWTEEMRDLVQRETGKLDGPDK
Method: Enzyme screens were performed by SAMDI Tech (contract research organization); enzyme assays were performed in a 20 μL volume in 384-well low-volume polypropylene microtiter plates (Greiner Bio-One) at room temperature. The enzymes [Arginase 1 (ARG1), Lysine demethylase 4C (KDM4C), MAP/microtubule affinity-regulating kinase 4 (MARK4), Histone-Lysine N-methyltransferase (NSD2), Tyrosine-protein phosphatase non-receptor type 1 (PTP1B), and Sirtuin-3 (SIRT3)] were incubated with compounds for 30 min prior to initiation of the reaction by the addition of substrate and cofactors (if required). […] SAMDI MS was performed using reflector positive mode on an AB Sciex TOF-TOF 5800 System (AB Sciex, Framingham, MA) with 400 shots/spot analyzed in a random raster sampling. For data analysis, the area under the curves (AUCs) for the product peak and substrate peak were calculated using the TOF/TOF Series Explorer (AB Sciex), and the amount of product formed was calculated using the equation AUC product / (AUC product + AUC Substrate). […]
IC50 values of enzyme inhibition. Inhibition of the enzymes was measured at 10 concentration values in the range of 5 nM to 100 μM for each compound and enzyme, with two technical replicates; the percent inhibition values were determined by SAMDI software. […]

[1] = molecular target: T2, Histone-Lysine N-methyltransferase (NSD2) (Homo sapiens, UniProt O96028); test: Enzyme activity assay (SAMDI-MS), NSD2; format: biochemical; conditions: 10 concentrations, 5 nM to 100 μM, compounds incubated with enzyme 30 min, result in words
T2 sequence (O96028 1-1365): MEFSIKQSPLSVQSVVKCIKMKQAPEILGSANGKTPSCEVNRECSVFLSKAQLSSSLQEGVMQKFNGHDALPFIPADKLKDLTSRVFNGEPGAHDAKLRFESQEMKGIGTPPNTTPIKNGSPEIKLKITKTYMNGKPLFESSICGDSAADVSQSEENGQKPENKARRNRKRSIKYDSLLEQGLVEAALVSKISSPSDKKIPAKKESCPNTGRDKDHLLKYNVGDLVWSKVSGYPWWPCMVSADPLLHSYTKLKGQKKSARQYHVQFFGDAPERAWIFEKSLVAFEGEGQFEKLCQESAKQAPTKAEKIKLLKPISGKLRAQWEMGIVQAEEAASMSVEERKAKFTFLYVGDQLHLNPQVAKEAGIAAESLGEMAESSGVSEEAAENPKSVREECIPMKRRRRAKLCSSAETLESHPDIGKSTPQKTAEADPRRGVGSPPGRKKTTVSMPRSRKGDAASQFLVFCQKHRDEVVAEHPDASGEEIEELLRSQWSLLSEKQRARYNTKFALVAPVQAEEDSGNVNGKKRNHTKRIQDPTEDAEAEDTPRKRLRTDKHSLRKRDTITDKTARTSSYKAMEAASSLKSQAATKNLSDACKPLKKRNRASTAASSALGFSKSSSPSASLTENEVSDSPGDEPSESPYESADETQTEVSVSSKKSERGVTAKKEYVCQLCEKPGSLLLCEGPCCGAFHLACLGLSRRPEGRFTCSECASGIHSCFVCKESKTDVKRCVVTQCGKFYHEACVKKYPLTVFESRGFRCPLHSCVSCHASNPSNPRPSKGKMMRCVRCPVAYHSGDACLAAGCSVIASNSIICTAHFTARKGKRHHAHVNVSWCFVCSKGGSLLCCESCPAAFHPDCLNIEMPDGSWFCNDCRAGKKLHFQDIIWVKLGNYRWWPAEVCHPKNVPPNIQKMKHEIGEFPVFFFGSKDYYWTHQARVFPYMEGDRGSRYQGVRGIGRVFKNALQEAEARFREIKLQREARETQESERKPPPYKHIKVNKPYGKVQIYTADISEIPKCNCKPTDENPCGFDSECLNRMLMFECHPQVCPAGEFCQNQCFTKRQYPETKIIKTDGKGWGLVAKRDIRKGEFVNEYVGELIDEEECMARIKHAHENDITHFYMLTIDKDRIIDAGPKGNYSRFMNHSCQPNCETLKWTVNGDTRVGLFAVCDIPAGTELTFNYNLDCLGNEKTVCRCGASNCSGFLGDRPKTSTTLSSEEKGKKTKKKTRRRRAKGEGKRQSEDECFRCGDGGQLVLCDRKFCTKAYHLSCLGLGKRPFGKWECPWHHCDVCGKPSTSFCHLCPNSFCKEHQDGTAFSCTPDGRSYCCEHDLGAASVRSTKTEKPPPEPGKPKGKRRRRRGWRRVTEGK
Method: Enzyme screens were performed by SAMDI Tech (contract research organization); enzyme assays were performed in a 20 μL volume in 384-well low-volume polypropylene microtiter plates (Greiner Bio-One) at room temperature. The enzymes [Arginase 1 (ARG1), Lysine demethylase 4C (KDM4C), MAP/microtubule affinity-regulating kinase 4 (MARK4), Histone-Lysine N-methyltransferase (NSD2), Tyrosine-protein phosphatase non-receptor type 1 (PTP1B), and Sirtuin-3 (SIRT3)] were incubated with compounds for 30 min prior to initiation of the reaction by the addition of substrate and cofactors (if required). Reactions were quenched by the addition of 0.5% formic acid (final) with subsequent neutralization using 1% sodium bicarbonate (final). For SAMDI MS analysis, 2 μL of each reaction was transferred using a 384-channel automated liquid handler to SAMDI biochip arrays functionalized with a neutravidin-presenting self-assembled monolayer. The preparation of SAMDI biochip arrays has been previously described ([41], [42], [49]). The SAMDI arrays were incubated for 1 h in a humidified chamber to allow specific immobilization of the biotinylated substrates and products; they were then purified by washing with ultrafiltered water (50 μL/spot) and dried with compressed air. A matrix comprising α-Cyano-4-hydroxycinnamic acid in 80% acetonitrile: 20% aqueous ammonium citrate (10 mg/mL final) was applied in an automated format by dispensing 50 nL to each spot in the array. SAMDI MS was performed using reflector positive mode on an AB Sciex TOF-TOF 5800 System (AB Sciex, Framingham, MA) with 400 shots/spot analyzed in a random raster sampling. For data analysis, the area under the curves (AUCs) for the product peak and substrate peak were calculated using the TOF/TOF Series Explorer (AB Sciex), and the amount of product formed was calculated using the equation AUC product / (AUC product + AUC Substrate). Negative controls were pre-quenched with 0.5% formic acid (final). Lysozyme assay was performed using the manufacturer’s instructions (Biovision Lysozyme inhibitor screening kit K237). Flavonoids were acquired from Sigma-Aldrich and Seleckchem.
IC50 values of enzyme inhibition. Inhibition of the enzymes was measured at 10 concentration values in the range of 5 nM to 100 μM for each compound and enzyme, with two technical replicates; the percent inhibition values were determined by SAMDI software. Sigmoidal curves were fitted to the percent inhibition vs log10 (concentration) series, and IC50 values were determined at the crossing point of 50 % inhibition. Manual verification of the fits and the IC50 values was performed. The resulting IC50 values fell into the following categories: (a) within the assayed range of 5nM to 100μM (26 % of fits), (b) IC50 could be extrapolated, IC50 > 100μM (12 % of fits), or (c) fitting was not possible because all values were at baseline (62 % of fits). Compound efficacy ranking. First, for each IC50 value per compound and enzyme, a Z-score was calculated based on the log10 (IC50) value and that of the compounds that produced a successful readout for enzyme i , according to Equation 1: […]

Row | Structure (SMILES) | inhibition of enzyme activity, SIRT3 (Sirtuin-3 (SIRT3); listed as Quercetin) | inhibition of enzyme activity, SIRT3 (Sirtuin-3 (SIRT3); listed as Quercitin) | inhibition of enzyme activity, NSD2 [1] | inhibition of enzyme activity, NSD2 ([1]; listed as Quercetin) | inhibition of enzyme activity, NSD2 ([1]; listed as Quercitin)
1 | O=c1c(O)c(-c2ccc(O)c(O)c2)oc2cc(O)cc(O)c12 [quercetin] | inhibited | concentration-dependent inhibition | blocked | inhibited | concentration-dependent inhibition
2 | C[C@@H]1O[C@@H](Oc2c(-c3ccc(O)c(O)c3)oc3cc(O)cc(O)c3c2=O)[C@H](O)[C@H](O)[C@H]1O [quercitrin] |  |  | blocked |  | 
3 | O=c1c(O[C@@H]2O[C@H](CO)[C@@H](O)[C@H](O)[C@H]2O)c(-c2ccc(O)c(O)c2)oc2cc(O)cc(O)c12 [isoquercitrin] |  |  | blocked |  | 
